Measured values as given in patent publication US20260216205A1, “SYSTEMS AND METHODS FOR TREATING HEART FAILURE WITH PRESERVED EJECTION FRACTION” (INVIVOSCIENCES INC., priority 2023, published 2026).
Entries after “also recorded” stand apart in the source; their conditions may differ.

Tests used:
[1] = tested on: engineered heart tissues (EHTs) derived from human induced pluripotent stem cells; assay: Long-term fasudil effects on engineered heart tissues (EHTs) with and without TGFβ, stress versus strain; type: cell-based
Protocol: FIGS. 16A-16D graphically illustrate the long-term effects of fasudil. The rates of stretch relative to the unstretched tissue length are depicted as strain (error bar=standard deviation of error). Number of samples are 2 or 4 in each condition.
To exemplify this patient stratification process, engineered heart tissues (EHTs) were prepared, the tissues containing cardiac fibroblasts (10% of cardiomyocytes at fabrication) derived from human induced pluripotent stem cells (iPSCs). Five days post-fabrication, one half of the engineered heart tissues (EHTs) was cultured regularly (FIG. 16A and FIG. 16C), and the other half was treated with 1 ng/mL TGFβ (FIG. 16B and FIG. 16D). […] The effect was clearly represented in the elevated passive stress-strain curve and its slope represented by the closed circles (0 μM fasudil data points) in FIG. 16C and FIG. 16D.
After 15 days, the EHTs, both with and without TGFβ treatment, were administered fasudil at concentrations of […] (FIGS. 16A-16D). […] However, by day 29, fasudil reduced cardiac contractility in EHTs, irrespective of TGFβ treatment.

[2] = tested on: engineered heart tissues (EHTs) derived from human induced pluripotent stem cells; assay: as above; type: cell-based; settings: short-term administration (less than 24 hours)
[3] = tested on: tissue constructs reconstituted with human fibroblasts / myofibroblasts; assay: Biomechanical phenotyping assay: isometric force on stretched bioengineered tissue constructs; type: cell-based
Text: Fasudil (FIG. 1) is a small molecule inhibitor of Rho-kinase (ROCK) that regulates its downstream signal transduction pathways and biological activities, including smooth muscle cells' contractility. InvivoSciences's biomechanical phenotyping assay recorded isometric force by stretching bioengineered tissue-constructs (see, U.S. Pat. No. 10,732,174). The tissue constructs were reconstituted with human fibroblasts that recapitulate connective tissues. Those tissue constructs reconstituted with myofibroblasts recapitulate connective tissue developing fibrosis.

[4] = intravenous formulations; Satoh et al., Life Sci 2001; cited from earlier work
[5] = tested on: human micro-heart tissues (iPSC-derived cardiomyocytes and non-muscle cells, mainly fibroblasts); assay: Biomechanical assay (length-tension) on micro-heart tissue constructs; type: cell-based; settings: for micro-heart tissue construct's stiffness (diastolic/passive stiffness): FIG. 7B
Text: The micro-heart tissue fabrication process produced micro-heart tissues using human cardiomyocytes derived from induced pluripotent stem cells (iPSCs) and non-muscle cells, mainly fibroblasts. Therefore, fasudil is a promising drug candidate to reduce elevated diastolic stiffness of patients with heart failure with preserved ejection fraction (HFpEF). The development of fibrosis in the heart is observed in various types of cardiomyopathies, and heart failure (HF). Myocardial interstitial fibrosis, for example, contributes to left ventricular dysfunction leading to the development of heart failure. Fibrotic myocardium becomes stiffer than healthy tissue to develop diastolic dysfunction. Fasudil targets Rho-kinase (ROCK) that regulates the activity of non-muscle myosin independent of calcium homeostasis. Human cardiac fibroblasts express ROCK1 and ROCK2, which both regulate non-muscle cell contractility similarly. The reduction of ROCK2 had notable effects on the profibrotic gene (FIGS. 7A-B) and protein expression (FIGS. 7A-B).
A force probe stretching approach was used to record the length-tension relationship to analyze cardiac contractility and stiffness of micro-heart tissue. Micro force-transducers (FIG. 11) of the mechanical assay device, Palpator™, measured resistance forces that were required to stretch micro-heart tissue growing in 96-well plates. As the probe moved down by a motorized arm, samples' cardiac contractile and baseline forces were measured at different tissue lengths. Sarcomere length was calibrated to strain (% of stretch over original sample length) according to a published protocol (Asnes, C. F. et al. Biophys. J. 2006. 91(5): pp. 1800-1180). (Fourier analysis of sarcomere patterns in fixed micro-heart tissue). In addition, other biological indicators such as calcium transients and action potential are measured using biological indicator dyes and high throughput microplate readers (FIGS. 13A-C). […]

[6] = tested on: human micro-heart tissues (NuHeart); assay: Mature NuHeart micro-heart tissue with and without TGFβ: length-tension, contractile force, ISO response, αSM actin; type: cell-based
Protocol: FIG. 11C-11F graphically show length-tension relationships of cardiac systolic ([…]) and diastolic (FIG. 10E, FIG. 10F) curves, monitored>30 days with and without TGFβ (10 ng/mL).
FIG. 11G is a bar graph illustrating that the positive inotropic response to ISO ([…]) were compared with and without TGFβ (bars=s.d., n=7) at the end of 35-day tissue development.
FIG. 11I-11J show profiles of cardiac contractile force with and without TGFβ.
A semi-automated, multi-point quality control (QC) production-process fabricated mature micro-heart tissues in 96-well format. The patient-derived (or gene-edited) iPSCs that were passed the QC test of pluripotency and purity go through the next step. This robust protocol of iPSC differentiation produced cardiomyocytes and non-muscle cells. Various parameters were optimized to produce highly purified (>95%) cardiomyocytes and cardiac non-muscle cells. Various differentiation techniques, a culture robot ACTRO™, and culture media may be used for cardiomyocyte (CM) differentiation and maintenance development and validation. FIGS. 9A-9D show mass-produced micro-heart tissues and their mature phenotype, which were assessed for their response to various positive inotropic and chronotropic agents (FIGS. 10A-10D). To grow mature micro-heart tissue, physiological (15% strain=~2.13 μm sarcomere length) stretching cycles were applied, in addition to constant bi-phasic, low energy (5-10 V, 1 ms duration) electrical stimulation, and maturation medium containing appropriate concentrations and combinations of fatty acids and other factors, including triiodothyronine, dexamethasone, taurine, creatine, and L-carnitine were used.
Human micro-heart tissues cultured for 35 days with electrical stimulation matured and loose its spontaneous beating. Myocardial fibrosis is more prevalent in HFpEF than in control, and Transforming growth factor beta (TGFβ) is a major profibrotic factor. […] The elevated diastolic stiffness and loss of contractile reserve are common in HFpEF patients. Some HFpEF patients, including hypertrophic cardiomyopathy, show a hypercontractile phenotype. A TGF-β signaling pathway in the pathogenesis of diabetes mellitus (DM) is well-known. Moreover, in rat models, the presence of diabetes led to the induction of a fetal gene program, typically seen in the setting of TGF-β over-expression and hypertrophy. Therefore, human induced pluripotent stem cell (iPSC) derived micro-heart tissue (NuHeart™ micro-heart tissue) will be used with TGFβ-treatment as a base of the proposed studies.
A force probe stretching approach was used to record the length-tension relationship to analyze cardiac contractility and stiffness of micro-heart tissue. Micro force-transducers (FIG. 11) of the mechanical assay device, Palpator™, measured resistance forces that were required to stretch micro-heart tissue growing in 96-well plates. As the probe moved down by a motorized arm, samples' cardiac contractile and baseline forces were measured at different tissue lengths. Sarcomere length was calibrated to strain (% of stretch over original sample length) according to a published protocol (Asnes, C. F. et al. Biophys. J. 2006. 91(5): pp. […]). (Fourier analysis of sarcomere patterns in fixed micro-heart tissue). In addition, other biological indicators such as calcium transients and action potential are measured using biological indicator dyes and high throughput microplate readers (FIGS. 13A-C). For example, micro-heart tissue with cardiomyocytes derived from gene-edited iPSC-derived cardiomyocytes was fabricated with a cardiac troponin T R92Q mutation (familial hypertrophic cardiomyopathy, i.e., “[…]”).

alpha-1 adrenoceptors = settings: read-out: IC50, affinity for alpha-1 adrenoceptors; cited from earlier work
[7] = long-term administration (3-14 days)
[8] = TGFβ-treated micro-heart (10 ng/mL, monitored >30 days)
[9] = NuHeart micro-heart tissue without TGFβ

O=S(=O)(c1cccc2cnccc12)N1CCCNCC1 [fasudil, Fasudil]
cardiac contractility in TGFβ-treated EHTs ([1]; 10 μM fasudil, by day 29): substantially reduce | effect on passive stiffness, TGFβ-treated tissues versus untreated ([1]; TGFβ-treated (1 ng/mL) EHTs): more pronounced effect | passive stiffness of EHTs ([1]; both with and without TGFβ (1 ng/mL) treatment, fasudil 1, 3, 10 µM): effectively reduced | cardiac contractility in EHTs ([1]; by day 29, irrespective of TGFβ treatment): reduced | cardiac contractility in EHTs [1, 7]: reduce | passive stiffness in EHTs [1, 7]: reduce | impact on cardiac contractility ([1]; one day after treatment (data not shown)): less significant | cardiac contractility in EHTs [2]: without significantly affecting | passive stiffness in EHTs [2]: effectively reduced | contractility of tissue constructs [3]: reduced | tissue stiffness of tissue constructs [3]: reduced | plasma concentration [4]: approximately 0.36 μM | cardiac contractility of the micro-heart tissues ([5]; FIG. 7A): did not change | micro-heart tissue construct's stiffness (diastolic/passive stiffness) [5]: reduced the micro-heart tissue construct's stiffness dose-dependently | micro-heart tissue construct's stiffness (diastolic/passive stiffness) ([5]; listed as Fasudil): reduced

Transforming growth factor beta [TGFβ]
passive stiffness of EHTs ([1]; 1 ng/mL TGFβ from five days post-fabrication, 0 μM fasudil): increased | αSM actin expression ([6]; TGFβ treated sample, Western blot): increased expression; also recorded: elevated | cardiac contractility of micro-heart [6, 8]: increasing | diastolic stress (stiffening) of micro-heart [6, 8]: increasing | ISO-induced positive inotropic and chronotropic responses ([6]; chronic TGFβ treatment): impaired

CN1CCN(C2=Nc3cc(F)ccc3Cc3ccccc32)CC1 [Fluperlapine]
IC50 (alpha-1 adrenoceptors): ~0.01 µM

CC(C)NCC(O)c1ccc(O)c(O)c1 (stereo not shown) [ISO, isoproterenol]
contractile amplitude [6, 9]: increased | duration of contraction (chrotropic response) [6, 9]: shortened | response of mature micro-heart tissues ([6]; after isoproterenol (ISO) treatment): positive inotropic and chronotropic responses | response of contractile force to ISO ([6]; micro-heart tissue with TGFβ): blunted response
